Test [1] has as its target T1, SIRT1 (Homo sapiens, UniProt Q96EB6).
T1 sequence (Q96EB6 1-747): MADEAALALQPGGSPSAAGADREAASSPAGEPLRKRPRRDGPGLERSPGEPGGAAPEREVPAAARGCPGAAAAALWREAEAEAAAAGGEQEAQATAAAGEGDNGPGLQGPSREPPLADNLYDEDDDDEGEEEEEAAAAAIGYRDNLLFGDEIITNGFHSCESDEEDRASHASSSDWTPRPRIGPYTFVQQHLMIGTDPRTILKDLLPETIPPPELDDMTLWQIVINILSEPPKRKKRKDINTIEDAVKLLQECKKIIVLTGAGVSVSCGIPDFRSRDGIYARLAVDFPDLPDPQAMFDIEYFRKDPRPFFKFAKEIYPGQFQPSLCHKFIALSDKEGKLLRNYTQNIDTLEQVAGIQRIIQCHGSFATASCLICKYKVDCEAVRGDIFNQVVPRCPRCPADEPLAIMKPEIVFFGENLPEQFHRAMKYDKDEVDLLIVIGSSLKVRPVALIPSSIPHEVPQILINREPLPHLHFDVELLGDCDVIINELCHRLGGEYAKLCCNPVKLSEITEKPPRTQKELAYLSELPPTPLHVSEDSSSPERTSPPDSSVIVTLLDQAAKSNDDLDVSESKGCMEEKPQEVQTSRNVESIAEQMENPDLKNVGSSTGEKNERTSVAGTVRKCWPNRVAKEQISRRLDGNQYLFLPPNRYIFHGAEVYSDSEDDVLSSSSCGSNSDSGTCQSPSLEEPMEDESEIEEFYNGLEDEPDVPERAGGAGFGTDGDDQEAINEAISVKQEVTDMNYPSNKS
Description: Trp mass spectrometry assay of SIRT1 deacetylase activation. The conditions noted are these: Trp peptide substrate; for TRP EC1.5 (μM): concentration that results in 150% activation of SIRT1; for TRP % Fold Act: percent maximum fold activation relative to control (100%). In kind it is biochemical. The source says:
(§1) Mass spectrometry based assays were used to identify modulators of SIRT1 activity. The TAMRA based assay utilized a peptide having 20 amino acid residues as follows: Ac-EE-K(biotin)-GQSTSSHSK(Ac)NleSTEG-K(5TMR)-EE-NH2 (SEQ ID NO: 1), wherein K(Ac) is an acetylated lysine residue and Nle is a norleucine. The peptide was labeled with the fluorophore 5TMR (excitation 540 nm/emission 580 nm) at the C-terminus. The sequence of the peptide substrate was based on p53 with several modifications. In addition, the methionine residue naturally present in the sequence was replaced with the norleucine because the methionine may be susceptible to oxidation during synthesis and purification. The Trp based assay utilized a peptide having an amino acid residues as follows: Ac-R-H-K-K(Ac)-W-NH2 (SEQ ID NO: 2).
The Trp mass spectrometry assay was conducted as follows. 0.5 μM peptide substrate and 120 μM βNAD^+ were incubated with 10 nM SIRT1 for 25 minutes at 25° C. in a reaction buffer (50 mM HEPES pH 7.5, […], 1 mM DTT, 0.05% BSA). The SIRT1 protein was obtained by cloning the SirT1 gene into a T7-promoter containing vector, which was then expressed in BL21(DE3) bacterial cells and purified as described in further detail below. Test compound was added at varying concentrations to this reaction mixture and the resulting reactions were monitored. After the 25 minute incubation with SIRT1, 10 μL of 10% formic acid was added to stop the reaction. The resulting reactions were sealed and frozen for later mass spec analysis. The relative SIRT1 activity was then determined by measuring the amount of O-acetyl-ADP-ribose (OAADPR) formed (or, alternatively, the amount of deacetylated Trp peptide generated) by the NAD-dependent sirtuin deacetylation reaction in the presence of varying concentrations of the test compound versus control reactions lacking the test compound. The degree to which the test agent activated deacetylation by SIRT1 was expressed as EC1.5 (i.e., the concentration of compound required to increase SIRT1 activity by 50% over the control lacking test compound), and Percent Maximum Activation (i.e., the maximum activity relative to control (100%) obtained for the test compound).
(§2) A control for inhibition of sirtuin activity was conducted by adding 1 μL of 500 mM nicotinamide as a negative control at the start of the reaction (e.g., permits determination of maximum sirtuin inhibition). A control for activation of sirtuin activity was conducted using 10 nM of sirtuin protein, with 1 μL of DMSO in place of compound, to determine the amount of deacetylation of the substrate at a given time point within the linear range of the assay. This time point was the same as that used for test compounds and, within the linear range, the endpoint represents a change in velocity. For the above assay, SIRT1 protein was expressed and purified as follows. The SirT1 gene was cloned into a T7-promoter containing vector and transformed into BL21(DE3). The protein was expressed by induction with 1 mM IPTG as an N-terminal His-tag fusion protein at 18° C. overnight and harvested at 30,000×g. Cells were lysed with lysozyme in lysis buffer (50 mM Tris-HCl, 2 mM Tris[2-carboxyethyl] phosphine (TCEP), 10 μM ZnCl2, 200 mM NaCl) and further treated with sonication for 10 min for complete lysis. The protein was purified over a Ni-NTA column (Amersham) and fractions containing pure protein were pooled, concentrated and run over a sizing column (Sephadex S200 26/60 global). The peak containing soluble protein was collected and run on an Ion-exchange column (MonoQ). Gradient elution (200 mM-500 mM NaCl) yielded pure protein. This protein was concentrated and dialyzed against dialysis buffer (20 mM Tris-HCl, 2 mM TCEP) overnight. The protein was aliquoted and frozen at −80° C. until further use.
Sirtuin-modulating compounds of Formula (I) that activated SIRT1 were identified using the assay described above and are shown below in Table 1. […]

Test [2] deals with T1, SIRT1. Briefly: TAMRA based mass spectrometry assay of SIRT1 deacetylase activation. It counts as biochemical. The conditions noted are these: TAMRA peptide substrate; for TAMRA EC1.5 (μM): concentration that results in 150% activation of SIRT1; for TAMRA % Fold Act: percent maximum fold activation relative to control (100%).
Excerpt: as §1
The TAMRA based mass spectrometry assay was conducted as follows: 0.5 μM peptide substrate and 120 μM βNAD^+ was incubated with 10 nM SIRT1 for 25 minutes at 25° C. in a reaction buffer (50 mM Tris-acetate pH 8, 137 mM NaCl, 2.7 mM KCl, 1 mM MgCl2, 5 mM DTT, 0.05% BSA). The SIRT1 protein was obtained by cloning the SirT1 gene into a T7-promoter containing vector, which was then transformed and expressed in BL21(DE3) bacterial cells. Test compound was added at varying concentrations to this reaction mixture and the resulting reactions were monitored. After the 25 minute incubation with SIRT1, 10 μL of 10% formic acid was added to stop the reaction. The resulting reactions were sealed and frozen for later mass spec analysis. Determination of the amount of deacetylated substrate peptide formed (or, alternatively, the amount of O-acetyl-ADP-ribose (OAADPR) generated) by the sirtuin-mediated NAD-dependent deacetylation reaction allowed for the precise measurement of relative SIRT1 activity in the presence of varying concentrations of the test compound versus control reactions lacking the test compound.
as §2
Sirtuin-modulating compounds of Formula (I) that activated SIRT1 were identified using the assay described above and are shown below in Table 1. The EC1.5 values represent the concentration of test compounds that result in 150% activation of SIRT1. The EC1.5 values for the activating compounds of Formula (I) are represented by A (EC1.5<1 μM), B (EC1.5 1−25 μM), C (EC1.5>25 μM). […]

As to `O=C(Nc1cccnc1)c1cc(N2CCOCC2)nn2cc(-c3ccccc3F)nc12` [Compound 40], on SIRT1 [1], the “TRP EC1.5 (μM)” value is “C (EC1.5>25 μM)” and the “TRP % Fold Act” value is “B (Fold Activation<350%)”. In addition, on SIRT1 [2], the “TAMRA EC1.5 (μM)” value was “C (EC1.5>25 μM)” and the “TAMRA % Fold Act” value is reported as “B (Fold Activation<350%)”.
For the compound `O=C(Nc1ccncc1)c1cc(N2CCOCC2)nn2cc(-c3ccccc3F)nc12` [Compound 41], at SIRT1 [1], the “TRP EC1.5 (μM)” value is “C (EC1.5>25 μM)” and the “TRP % Fold Act” value is “B (Fold Activation<350%)”. At SIRT1 [2], the “TAMRA EC1.5 (μM)” value was “C (EC1.5>25 μM)” and the “TAMRA % Fold Act” value is listed as “B (Fold Activation<350%)”.
In the case of `O=C(Nc1nccs1)c1cc(N2CCOCC2)nn2cc(-c3ccccc3C(F)(F)F)nc12` [Compound 42], at SIRT1 [1], the “TRP EC1.5 (μM)” value is recorded as “C (EC1.5>25 μM)” and the “TRP % Fold Act” value is listed as “B (Fold Activation<350%)”. At SIRT1 [2], the “TAMRA EC1.5 (μM)” value is reported as “B (EC1.5 1−25 μM)” and the “TAMRA % Fold Act” value is “B (Fold Activation<350%)”.
As for `Cc1cnc(NC(=O)c2cc(N3CCOCC3)nn3cc(-c4ccccc4C(F)(F)F)nc23)s1` [Compound 43], at SIRT1 [1], the “TRP EC1.5 (μM)” value is “C (EC1.5>25 μM)” and the “TRP % Fold Act” value is listed as “B (Fold Activation<350%)”. For the same compound, on SIRT1 [2], the “TAMRA EC1.5 (μM)” value was “A (EC1.5<1 μM)” and the “TAMRA % Fold Act” value is “B (Fold Activation<350%)”.
As to `O=C(Nc1ccccn1)c1cc(N2CCOCC2)nn2cc(-c3ccccc3C(F)(F)F)nc12` [Compound 44], at SIRT1 [1], the “TRP EC1.5 (μM)” value is recorded as “C (EC1.5>25 μM)” and the “TRP % Fold Act” value is given as “B (Fold Activation<350%)”. At SIRT1 [2], the “TAMRA EC1.5 (μM)” value is reported as “B (EC1.5 1−25 μM)” and the “TAMRA % Fold Act” value is “B (Fold Activation<350%)”.
As for `O=C(Nc1cccnc1)c1cc(N2CCOCC2)nn2cc(-c3ccccc3C(F)(F)F)nc12` [Compound 45], on SIRT1 [1], the “TRP EC1.5 (μM)” value is given as “B (EC1.5 1−25 μM)” and the “TRP % Fold Act” value is listed as “B (Fold Activation<350%)”. At SIRT1 [2], the “TAMRA EC1.5 (μM)” value is listed as “B (EC1.5 1−25 μM)” and the “TAMRA % Fold Act” value was “A (Fold activation≧350%)”.
For the compound `O=C(Nc1ccncc1)c1cc(N2CCOCC2)nn2cc(-c3ccccc3C(F)(F)F)nc12` [Compound 46], on SIRT1 [1], the “TRP EC1.5 (μM)” value was “C (EC1.5>25 μM)” and the “TRP % Fold Act” value is listed as “B (Fold Activation<350%)”. At SIRT1 [2], the “TAMRA EC1.5 (μM)” value is “A (EC1.5<1 μM)” and the “TAMRA % Fold Act” value is “A (Fold activation≧350%)”.
The corresponding values for `O=C(Nc1nccs1)c1cc(N2CCOCC2)nn2cc(-c3cccc(C(F)(F)F)c3)nc12` [Compound 47] are “C (EC1.5>25 μM)”, “B (Fold Activation<350%)”, “C (EC1.5>25 μM)” and “B (Fold Activation<350%)”.
Consider `Cc1cnc(NC(=O)c2cc(N3CCOCC3)nn3cc(-c4cccc(C(F)(F)F)c4)nc23)s1` [Compound 48], for which, at SIRT1 [1], the “TRP EC1.5 (μM)” value is on record as “C (EC1.5>25 μM)” and the “TRP % Fold Act” value is listed as “B (Fold Activation<350%)”. At SIRT1 [2], the “TAMRA EC1.5 (μM)” value was “C (EC1.5>25 μM)” and the “TAMRA % Fold Act” value is “B (Fold Activation<350%)”.
With `O=C(Nc1ccccn1)c1cc(N2CCOCC2)nn2cc(-c3cccc(C(F)(F)F)c3)nc12` [Compound 49], on SIRT1 [1], the “TRP EC1.5 (μM)” value is recorded as “C (EC1.5>25 μM)” and the “TRP % Fold Act” value is listed as “B (Fold Activation<350%)”. Moreover, on SIRT1 [2], the “TAMRA EC1.5 (μM)” value is listed as “C (EC1.5>25 μM)” and the “TAMRA % Fold Act” value was “B (Fold Activation<350%)”.
For `O=C(Nc1ccncc1)c1cc(N2CCOCC2)nn2cc(-c3cccc(Cl)c3)nc12` [Compound 54], on SIRT1 [1], the “TRP EC1.5 (μM)” value is reported as “C (EC1.5>25 μM)” and the “TRP % Fold Act” value is “B (Fold Activation<350%)”. Moreover, on SIRT1 [2], the “TAMRA EC1.5 (μM)” value is “C (EC1.5>25 μM)” and the “TAMRA % Fold Act” value is given as “B (Fold Activation<350%)”.
With `O=C(Nc1ccnc2cc(-c3ccccc3C(F)(F)F)nn12)c1cscn1` [Compound 55], on SIRT1 [1], the “TRP EC1.5 (μM)” value is “C (EC1.5>25 μM)” and the “TRP % Fold Act” value was “B (Fold Activation<350%)”. On SIRT1 [2], the “TAMRA EC1.5 (μM)” value was “B (EC1.5 1−25 μM)” and the “TAMRA % Fold Act” value was “A (Fold activation≧350%)”.
For `Cc1nc(C(=O)Nc2ccnc3cc(-c4ccccc4C(F)(F)F)nn23)cs1` [Compound 56], at SIRT1 [1], the “TRP EC1.5 (μM)” value is given as “C (EC1.5>25 μM)” and the “TRP % Fold Act” value is “B (Fold Activation<350%)”. For the same compound, at SIRT1 [2], the “TAMRA EC1.5 (μM)” value is listed as “A (EC1.5<1 μM)” and the “TAMRA % Fold Act” value was “A (Fold activation≧350%)”.
As to `Cc1nc(C(=O)Nc2ccnc3cc(-c4ccccc4C(F)(F)F)nn23)c(C)s1` [Compound 57], at SIRT1 [1], the “TRP EC1.5 (μM)” value is given as “B (EC1.5 1−25 μM)” and the “TRP % Fold Act” value is recorded as “B (Fold Activation<350%)”. At SIRT1 [2], the “TAMRA EC1.5 (μM)” value was “A (EC1.5<1 μM)” and the “TAMRA % Fold Act” value is reported as “A (Fold activation≧350%)”.
For `Cc1cnc(C(=O)Nc2ccnc3cc(-c4ccccc4C(F)(F)F)nn23)s1` [Compound 58], on SIRT1 [1], the “TRP EC1.5 (μM)” value was “C (EC1.5>25 μM)” and the “TRP % Fold Act” value is reported as “B (Fold Activation<350%)”. At SIRT1 [2], the “TAMRA EC1.5 (μM)” value is “C (EC1.5>25 μM)” and the “TAMRA % Fold Act” value is on record as “B (Fold Activation<350%)”.

These data come from US20140288052A1, “SUBSTITUTED BICYCLIC AZA-HETEROCYCLES AND ANALOGUES AS SIRTUIN MODULATORS” (GlaxoSmithKline, LLC, priority 2011, published 2014).
